Results from ChEMBL document CHEMBL6078720, “Design and synthesis of novel 3,7-dihydro-1H-purine-2,6-diones as DPP-4 inhibitors: An in silico, in vitro and in vivo approach” (Eur J Med Chem, 2025).
Calls of active or inactive are those of the source. No cut-off for these calls is given here.

Key:
Mus musculus [1] = experiment: Acute anti-hyperglycemic activity against STZ-NA induced diabetic Swiss Albino mouse model assessed as reduction in blood glucose level at 5 mg/kg, po measured up to 24 hrs; type: functional, organism-based
Mus musculus [2] = experiment: Chronic anti-hyperglycemic activity against STZ-NA induced diabetic Swiss Albino mouse model assessed as reduction in blood glucose level at 5 mg/kg, po measured up to 21 days; type: functional, organism-based; details: time <= 21.0 day
Mus musculus [3] = experiment: Anti-diabetic activity against STZ-NA induced diabetic Swiss Albino mouse model assessed as decrease in blood glucose level at 5 mg/kg, po measured up to 240 mins by Oral glucose tolerance test relative to control; type: functional, organism-based
[4] = Toxicity in STZ-NA induced diabetic Swiss Albino mouse model assessed as decrease in body weight at 5 mg/kg, po measured after 21 days; type: organism-based; details: in vivo, 504 h, time 21 day
HepG2 [5] = details: dose 15 nM; time 24 hrs
HepG2 [6] = details: dose 15 nM; time 24 hrs; remark: listed apart in the source
Mus musculus [7] = species on record: Mus musculus; details: dose 5 mg/kg; route po; time 21 day
Description: Reversal of STZ-NA induced total ROS formation in diabetic mouse model assessed as decrease in ROS production by measuring mean fluorescence intensity at 5 mg/kg, po after 21 days (Rvb = 287228 No_unit)

Mus musculus [8] = species on record: Mus musculus; details: dose 5 mg/kg; route po; time 21 day; remark: listed apart in the source
Mus musculus [9] = species on record: Mus musculus; details: dose 5 mg/kg; route po; time 21 day; remark: listed apart in the source
Description: Reversal of STZ-NA induced increase in DPP-4 production in diabetic mouse model assessed as decrease in DPP-4 expression in liver tissue by measuring mean fluorescence intensity at 5 mg/kg, po after 21 days by flow cytometry (Rvb = 322245 No_unit)

HepG2 [10] = experiment: Cytotoxicity against human HepG2 cells assessed as cell viability up to 100 uM incubated for 24 hrs by MTT assay; type: toxicity, cell-based; details: hepg2, 24 h
Mus musculus [11] = experiment: Anti-diabetic activity against STZ-NA induced diabetic Swiss Albino mouse model assessed as decrease in blood glucose level at 10 mg/kg, po measured up to 240 mins by Oral glucose tolerance test relative to control; type: functional, organism-based
[12] = Toxicity in STZ-NA induced diabetic Swiss Albino mouse model assessed as decrease in body weight at 10 mg/kg, po measured after 21 days; type: organism-based; details: in vivo, 504 h, time 21 day
Mus musculus [13] = experiment: Effect on STZ-NA induced histological abnormalities in diabetic mouse model assessed as change in appearance of liver at 10 mg/kg, po after 21 days by hematoxylin and eosin staining based microscopic assay; type: functional, organism-based; details: time 21.0 day
Mus musculus [14] = experiment: Effect on STZ-NA induced histological abnormalities in diabetic mouse model assessed as change in hepatocyte density at 10 mg/kg, po after 21 days by hematoxylin and eosin staining based microscopic assay; type: functional, organism-based; details: time 21.0 day
Mus musculus [15] = experiment: Effect on STZ-NA induced histological abnormalities in diabetic mouse model assessed as change in hepatocyte structure at 10 mg/kg, po after 21 days by hematoxylin and eosin staining based microscopic assay; type: functional, organism-based; details: time 21.0 day
Mus musculus [16] = experiment: Effect on STZ-NA induced histological abnormalities in diabetic mouse model assessed as change in hepatocyte size at 10 mg/kg, po after 21 days by hematoxylin and eosin staining based microscopic assay; type: functional, organism-based; details: time 21.0 day
Mus musculus [17] = experiment: Reversal of STZ-NA induced histological abnormalities in diabetic mouse model assessed as hepatic portal vein at 10 mg/kg, po after 21 days by hematoxylin and eosin staining based microscopic assay; type: functional, organism-based; details: time 21.0 day
Mus musculus [18] = experiment: Reversal of STZ-NA induced histological abnormalities in diabetic mouse model assessed as enlarged extracellular gaps at 10 mg/kg, po after 21 days by hematoxylin and eosin staining based microscopic assay; type: functional, organism-based; details: time 21.0 day
Mus musculus [19] = experiment: Reversal of STZ-NA induced histological abnormalities in diabetic mouse model assessed as vacuoles at 10 mg/kg, po after 21 days by hematoxylin and eosin staining based microscopic assay; type: functional, organism-based; details: time 21.0 day
Mus musculus [20] = experiment: Reversal of STZ-NA induced histological abnormalities in diabetic mouse model assessed as vacuolation and mild congestion at 10 mg/kg, po after 21 days by hematoxylin and eosin staining based microscopic assay; type: functional, organism-based; details: time 21.0 day
Mus musculus [21] = experiment: Reversal of STZ-NA induced increase in DPP-4 expression in po dosed diabetic mouse model assessed as decrease in DPP-4 expression in cellular region after 21 days by Immunohistochemical analysis; type: functional, organism-based; details: dose 5-10 mg/kg, time 21.0 day
Mus musculus [22] = experiment: Reversal of STZ-NA induced increase in DPP-4 mRNA production in po dosed diabetic mouse model assessed as decrease in DPP-4 mRNA expression in liver tissue by measuring mean fluorescence intensity after 21 days by RT-qPCR analysis; type: functional, organism-based; details: dose 5-10 mg/kg, time 21.0 day
Mus musculus [23] = species on record: Mus musculus; details: dose 10 mg/kg; route po; time 21 day
Description: Reversal of STZ-NA induced total ROS formation in diabetic mouse model assessed as decrease in ROS production by measuring mean fluorescence intensity at 10 mg/kg, po after 21 days (Rvb = 287228 No_unit)

Mus musculus [24] = species on record: Mus musculus; details: dose 10 mg/kg; route po; time 21 day; remark: listed apart in the source
Mus musculus [25] = species on record: Mus musculus; details: dose 10 mg/kg; route po; time 21 day; remark: listed apart in the source
Description: Reversal of STZ-NA induced increase in DPP-4 production in diabetic mouse model assessed as decrease in DPP-4 expression in liver tissue by measuring mean fluorescence intensity at 10 mg/kg, po after 21 days by flow cytometry (Rvb = 322245 No_unit)

Dipeptidyl peptidase 4 = Dipeptidyl peptidase 4 (Homo sapiens, UniProt P27487); experiment: Inhibition of human recombinant DPP-4 using Gly-Pro-AMC as fluorogenic substrate by measuring fluorescence intensity incubated for 30 mins
Mus musculus [26] = experiment: Acute anti-hyperglycemic activity against STZ-NA induced diabetic Swiss Albino mouse model assessed as reduction in blood glucose level at 10 mg/kg, po measured up to 24 hrs; type: functional, organism-based
Mus musculus [27] = experiment: Chronic anti-hyperglycemic activity against STZ-NA induced diabetic Swiss Albino mouse model assessed as reduction in blood glucose level at 10 mg/kg, po measured up to 21 days; type: functional, organism-based; details: time <= 21.0 day

Dipeptidyl peptidase 4, sequence (P27487 whole entry): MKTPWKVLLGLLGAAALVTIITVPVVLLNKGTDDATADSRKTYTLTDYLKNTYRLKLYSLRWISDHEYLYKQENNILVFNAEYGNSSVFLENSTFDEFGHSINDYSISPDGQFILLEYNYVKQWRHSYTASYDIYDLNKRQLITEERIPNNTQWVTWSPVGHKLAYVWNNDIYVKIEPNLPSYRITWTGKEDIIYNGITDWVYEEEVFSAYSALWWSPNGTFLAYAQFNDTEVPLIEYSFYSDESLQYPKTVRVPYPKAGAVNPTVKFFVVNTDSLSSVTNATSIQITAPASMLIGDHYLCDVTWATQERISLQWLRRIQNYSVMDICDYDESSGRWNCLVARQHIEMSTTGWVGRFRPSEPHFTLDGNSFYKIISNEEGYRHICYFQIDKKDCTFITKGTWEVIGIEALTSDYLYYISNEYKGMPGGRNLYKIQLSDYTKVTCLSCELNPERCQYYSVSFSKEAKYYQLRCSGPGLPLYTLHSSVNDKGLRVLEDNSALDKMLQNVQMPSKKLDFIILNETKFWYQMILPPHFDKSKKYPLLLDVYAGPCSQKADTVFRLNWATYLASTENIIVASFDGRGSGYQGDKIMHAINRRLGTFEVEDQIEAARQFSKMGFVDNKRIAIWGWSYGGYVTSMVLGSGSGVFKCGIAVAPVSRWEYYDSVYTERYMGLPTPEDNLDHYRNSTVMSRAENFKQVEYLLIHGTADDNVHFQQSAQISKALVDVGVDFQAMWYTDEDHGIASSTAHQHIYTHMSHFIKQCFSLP

Q: Which Activity (Mus musculus [1]) does the source give for `CC#CCn1c(N2CCC[C@@H](N)C2)nc2c1c(=O)n(Cc1nc(C)c3ccccc3n1)c(=O)n2C` [LINAGLIPTIN] here?
A: Active

Q: What about the Activity (Mus musculus [2]) of the same compound?
A: Active

Q: What about the Activity (Mus musculus [3]) of the same compound?
A: Active

Q: And the Activity [4]?
A: Toxic

Q: And the Flu intensity (HepG2 [5])?
A: 3493

Q: What about the Flu intensity (HepG2 [6]) of the same compound?
A: 1212

Q: And the Flu intensity (Mus musculus [7])?
A: 15930

Q: What about the Flu intensity (Mus musculus [8]) of the same compound?
A: 2520

Q: What about the Flu intensity (Mus musculus [9]) of the same compound?
A: 20334

Q: For `Cn1c(=O)c2c(nc(N3CCOCC3)n2Cc2ccc(F)cc2)n(C)c1=O`, which Activity (HepG2 [10]) is on record?
A: Non-toxic

Q: For `Cn1c(=O)c2c(nc(Oc3ccc(C=O)cc3)n2Cc2ccc(Cl)cc2Cl)n(C)c1=O`, which Activity (HepG2 [10]) is on record?
A: Non-toxic

Q: Which Activity (HepG2 [10]) does the source give for `C=CCn1c(=O)c2c(ncn2Cc2ccc(C#N)cc2)n(Cc2ccccc2)c1=O` here?
A: Non-toxic

Q: Which Activity (HepG2 [10]) does the source give for `Cc1ccc(Cn2cnc3c2c(=O)n(Cc2ccc(C#N)cc2)c(=O)n3C)cc1` here?
A: Non-toxic

Q: With `Cn1c(=O)[nH]c(=O)c2c1nc(N1CCOCC1)n2Cc1ccc(Cl)cc1` as the compound, how does the Activity (HepG2 [10]) read?
A: Non-toxic

Q: With `C=CCn1c(Oc2ccc([N+](=O)[O-])cc2)nc2c1c(=O)n(Cc1nc(C)c3ccccc3n1)c(=O)n2C` as the compound, how does the Activity (HepG2 [10]) read?
A: Non-toxic

Q: And the Activity (Mus musculus [3])?
A: Active

Q: What about the Activity (Mus musculus [11]) of the same compound?
A: Active

Q: What about the Activity [4] of the same compound?
A: Toxic

Q: And the Activity [12]?
A: Toxic

Q: And the Activity (Mus musculus [13])?
A: inactive

Q: What about the Activity (Mus musculus [14]) of the same compound?
A: inactive

Q: And the Activity (Mus musculus [15])?
A: inactive

Q: And the Activity (Mus musculus [16])?
A: inactive

Q: What about the Activity (Mus musculus [17]) of the same compound?
A: Active; Hepatic Portal Vein Looked Similar To Normal Group

Q: What about the Activity (Mus musculus [18]) of the same compound?
A: Active

Q: What about the Activity (Mus musculus [19]) of the same compound?
A: Active

Q: And the Activity (Mus musculus [20])?
A: inactive

Q: And the Activity (Mus musculus [21])?
A: Dose-dependent-effect

Q: What about the Activity (Mus musculus [22]) of the same compound?
A: Dose-dependent-effect

Q: What about the Flu intensity (HepG2 [5]) of the same compound?
A: 82988

Q: What about the Flu intensity (HepG2 [6]) of the same compound?
A: 3565

Q: What about the Flu intensity (Mus musculus [7]) of the same compound?
A: 165558

Q: And the Flu intensity (Mus musculus [23])?
A: 138121

Q: What about the Flu intensity (Mus musculus [8]) of the same compound?
A: 36602

Q: And the Flu intensity (Mus musculus [24])?
A: 9136

Q: And the Flu intensity (Mus musculus [9])?
A: 248748

Q: What about the Flu intensity (Mus musculus [25]) of the same compound?
A: 154821

Q: With `Cn1c(=O)c2c(nc(Oc3ccc(Br)cc3)n2CC(=O)c2ccc(-c3ccccc3)cc2)n(C)c1=O` as the compound, how does the Activity (HepG2 [10]) read?
A: Non-toxic

Q: With `Cn1c(=O)c2c(nc(Oc3ccc([N+](=O)[O-])cc3)n2Cc2ccc(Cl)cc2Cl)n(C)c1=O` as the compound, how does the Activity (HepG2 [10]) read?
A: Non-toxic

Q: Which Activity (HepG2 [10]) does the source give for `Cn1c(=O)[nH]c(=O)c2c1nc(Oc1ccc([N+](=O)[O-])cc1)n2Cc1ccc(C#N)cc1` here?
A: Non-toxic

Q: For `Cn1c(=O)n(Cc2ccccc2)c(=O)c2c1nc(Oc1ccc([N+](=O)[O-])cc1)n2Cc1ccc(C#N)cc1`, which Activity (HepG2 [10]) is on record?
A: Non-toxic

Q: Which Activity (HepG2 [10]) does the source give for `COc1cccc(Cn2c(N3CCOCC3)nc3c2c(=O)n(C)c(=O)n3C)c1` here?
A: Non-toxic

Q: And the IC50 (Dipeptidyl peptidase 4)?
A: 27.9 nM

Q: With `Cn1c(=O)c2c(nc(Oc3ccc([N+](=O)[O-])cc3)n2CC(=O)c2ccc(-c3ccccc3)cc2)n(C)c1=O` as the compound, how does the Activity (HepG2 [10]) read?
A: Non-toxic

Q: For `Cn1c(=O)c2c(nc(Oc3ccc4ccc(=O)oc4c3)n2CC(=O)c2ccc(-c3ccccc3)cc2)n(C)c1=O`, which Activity (HepG2 [10]) is on record?
A: Non-toxic

Q: With `Cn1c(=O)c2c(nc(Oc3ccc(C=O)cc3)n2Cc2ccc(F)cc2)n(C)c1=O` as the compound, how does the Activity (HepG2 [10]) read?
A: Non-toxic

Q: Which Activity (HepG2 [10]) does the source give for `Cn1c(=O)c2c(nc(N3CCOCC3)n2Cc2ccccc2)n(C)c1=O` here?
A: Non-toxic

Q: And the IC50 (Dipeptidyl peptidase 4)?
A: 15.7 nM

Q: And the Activity (Mus musculus [26])?
A: Active; Results Comparable To Linagliptin

Q: What about the Activity (Mus musculus [27]) of the same compound?
A: Active; Results Comparable To Linagliptin

Q: What about the Activity (Mus musculus [3]) of the same compound?
A: Active

Q: What about the Activity (Mus musculus [11]) of the same compound?
A: Active

Q: What about the Activity [4] of the same compound?
A: Toxic

Q: And the Activity [12]?
A: Toxic

Q: What about the Activity (Mus musculus [13]) of the same compound?
A: inactive

Q: What about the Activity (Mus musculus [14]) of the same compound?
A: inactive

Q: What about the Activity (Mus musculus [15]) of the same compound?
A: inactive

Q: And the Activity (Mus musculus [16])?
A: inactive

Q: And the Activity (Mus musculus [17])?
A: Active; Hepatic Portal Vein Looked Similar To Normal Group

Q: What about the Activity (Mus musculus [18]) of the same compound?
A: Active

Q: And the Activity (Mus musculus [19])?
A: Active

Q: What about the Activity (Mus musculus [20]) of the same compound?
A: inactive

Q: What about the Activity (Mus musculus [21]) of the same compound?
A: Dose-dependent-effect

Q: What about the Activity (Mus musculus [22]) of the same compound?
A: Dose-dependent-effect

Q: What about the Flu intensity (HepG2 [5]) of the same compound?
A: 6930

Q: What about the Flu intensity (HepG2 [6]) of the same compound?
A: 1460

Q: And the Flu intensity (Mus musculus [7])?
A: 82220

Q: And the Flu intensity (Mus musculus [23])?
A: 49658

Q: And the Flu intensity (Mus musculus [8])?
A: 11036

Q: And the Flu intensity (Mus musculus [24])?
A: 4811

Q: And the Flu intensity (Mus musculus [9])?
A: 240545

Q: What about the Flu intensity (Mus musculus [25]) of the same compound?
A: 89888

Q: For `Cn1c(=O)c2c(nc(N3CCOCC3)n2Cc2cccc([N+](=O)[O-])c2)n(C)c1=O`, which Activity (HepG2 [10]) is on record?
A: Non-toxic
